Patent USRE47302E1 (ONYX THERAPEUTICS INC., priority 2013, dated 2019)
≈ marks a conversion by molar mass, not a printed value. Where two headings read alike, the source gives them in different places.

Key:
[1] = target: T1, immunoproteasome subunit LMP7 (Homo sapiens, UniProt P28062); experiment: Proteasome active-site ELISA (ProCISE), LMP7, MOLT-4 lysate; type: biochemical
T1 construct: Lysate from the human acute lymphoblastic leukemia cell line, MOLT-4; endogenous in cells; host or cells: MOLT-4
Procedure: (§1) Test compounds were serially diluted in DMSO at 100× concentration, then diluted to 10× in aqueous hypotonic lysis buffer. Lysate from the human acute lymphoblastic leukemia cell line, MOLT-4, was treated for 1 hour at 25° C. with compound at a final 1× concentration. […] Following, lysate was denatured in guanidine hydrochloride, and subunits bound to probe were isolated with streptavidin-conjugated sepharose beads. Individual subunits (e.g., β5, LMP7, LMP2, MECL-1) were probed with subunit-specific primary antibodies, followed by HRP-conjugated secondary antibodies. A chemiluminescent substrate was used to generate signal associated with HRP binding, which was detected on a plate reader. Luminescent signal was normalized to protein content, then, percent activity calculated relative to DMSO-treated controls to generate IC50 curves.

[2] = target: T2, proteasome subunit β5 (beta5) (Homo sapiens, UniProt P28074); experiment: Proteasome active-site ELISA (ProCISE), beta5, MOLT-4 lysate; type: biochemical; conditions: MOLT4 lysate, human, 1 h continuous treatment, 25° C.
T2 construct: Lysate from the human acute lymphoblastic leukemia cell line, MOLT-4; endogenous in cells; host or cells: MOLT-4
Procedure: as §1

Solubility pH 7 = conditions: pH 7, aqueous buffer
[3] = MOLT4 lysate, 1 h continuous treatment, 25° C.

COc1ccc(C[C@H](NC(=O)[C@H](C)NC(=O)CN2CCOCC2)C(=O)N[C@@H](CC2CCC2)C(=O)[C@@]2(C)CO2)cc1 [Compound C-1004, (S)-N-((S)-3-cyclobutyl-1-((R)-2-methyloxiran-2-yl)-1-oxopropan-2-yl)-3-(4-methoxyphenyl)-2-((S)-2-(2-morpholinoacetamido)propanamido)propanamide]
IC50 [1, 3]: 541 nM
IC50 [2]: 1870 nM
solubility (Solubility pH 7): 2500 µg/mL (≈ 4.47 mM)

COc1ccc(C[C@H](NC(=O)[C@H](C)NC(=O)CN2CCOCC2)C(=O)N[C@@H](CC2CC2)C(=O)[C@@]2(C)CO2)cc1 [Compound C-1006, (S)-N-((S)-3-cyclopropyl-1-((R)-2-methyloxiran-2-yl)-1-oxopropan-2-yl)-3-(4-methoxyphenyl)-2-((S)-2-(2-morpholinoacetamido)propanamido)propanamide]
IC50 [1, 3]: 5150 nM
IC50 [2]: 5240 nM
solubility (Solubility pH 7): 2590 µg/mL (≈ 4.75 mM)

COc1ccc(C[C@H](NC(=O)[C@H](C)NC(=O)CN2CCOCC2)C(=O)N[C@@H](C[C@H]2CCCO2)C(=O)[C@@]2(C)CO2)cc1 [Compound C-1017, (S)-3-(4-methoxyphenyl)-N-((S)-1-((R)-2-methyloxhan-2-yl)-1-oxo-3-((R)-tetrahydrofuran-2-yl)propan-2-yl)-2-((S)-2-(2-morpholinoacetamido)propanamido)propanamide]
IC50 [1, 3]: 1090 nM
IC50 [2]: 21700 nM
solubility (Solubility pH 7): 11700 µg/mL (≈ 20.4 mM)

COc1ccc(C[C@H](NC(=O)[C@H](C)NC(=O)CN2CCOCC2)C(=O)N[C@@H](CC2=CCCCC2)C(=O)[C@@]2(C)CO2)cc1 [Compound C-1019, (S)-N-((S)-3-(cyclohex-1-en-1-yl)-1-((R)-2-methyloxiran-2-yl)-1-oxopropan-2-yl)-3-(4-methoxyphenyl)-2-((S)-2-(2-morpholinoacetamido)propanamido)propanamide]
IC50 [2]: 9330 nM
solubility (Solubility pH 7): 1760 µg/mL (≈ 3.01 mM)

COc1ccc(C[C@H](NC(=O)[C@H](C)NC(=O)CN2CCOCC2)C(=O)N[C@@H](CC2=CCOCC2)C(=O)[C@@]2(C)CO2)cc1 [Compound C-1020, (S)-N-((S)-3-(3,6-dihydro-2H-pyran-4-yl)-1-((R)-2-methyloxiran-2-yl)-1-oxopropan-2-yl)-3-(4-methoxyphenyl)-2-((S)-2-(2-morpholinoacetamido)propanamido)propanamide]
IC50 [1, 3]: 1160 nM
IC50 [2]: 45000 nM
solubility (Solubility pH 7): 6440 µg/mL (≈ 11 mM)

COc1ccc(C[C@H](NC(=O)[C@H](C)NC(=O)CN2CCOCC2)C(=O)N[C@@H](CC2=CCCC2)C(=O)[C@H]2CO2)cc1 [Compound C-1038, (S)-N-((S)-3-(cyclopent-1-en-1-yl)-1-((R)-oxiran-2-yl)-1-oxopropan-2-yl)-3-(4-methoxyphenyl)-2-((S)-2-(2-morpholinoacetamido)propanamido)propanamide]
IC50 [1, 3]: 9.07 nM
IC50 [2]: 289 nM
solubility (Solubility pH 7): 230 µg/mL (≈ 0.414 mM)

C[C@H](NC(=O)CN1CCOCC1)C(=O)N[C@@H](Cc1ccc2c(c1)OCO2)C(=O)N[C@@H](CC1CCCC1)C(=O)[C@H]1CO1 [Compound C-1060, (S)-3-(benzo[d][1,3]dioxol-5-yl)-N-((S)-3-cyclopentyl-1-((R)-oxiran-2-yl)-1-oxopropan-2-yl)-2-((S)-2-(2-morpholinoacetamido)propanamido)propanamide]
IC50 [1, 3]: 12.4 nM
IC50 [2]: 423 nM
solubility (Solubility pH 7): 1380 µg/mL (≈ 2.4 mM)

COc1ccc(C[C@H](NC(=O)[C@@H](C)NC(=O)[C@H]2CC[C@H](O)CC2)C(=O)N[C@@H](CC2CCCC2)C(=O)[C@@]2(C)CO2)cc1 [Compound C-1064, (1r,4R)-N-((R)-1-(((S)-1-(((S)-3-cyclopentyl-1-((R)-2-methyloxiran-2-yl)-1-oxopropan-2-yl)amino)-3-(4-methoxyphenyl)-1-oxopropan-2-yl)amino)-1-oxopropan-2-yl)-4-hydroxycyclohexanecarboxamide]
IC50 [1, 3]: 60.5 nM
IC50 [2]: 4050 nM

COc1ccc(C[C@H](NC(=O)[C@@H](C)NC(=O)[C@H]2CC[C@H](O)CC2)C(=O)N[C@@H](CC2=CCCC2)C(=O)[C@@]2(C)CO2)cc1O [Compound C-1065, (1r,4R)-N-((R)-1-(((S)-1-(((S)-3-(cyclopent-1-en-1-yl)-1-((R)-2-methyloxiran-2-yl)-1-oxopropan-2-yl)amino)-3-(3-hydroxy-4-methoxyphenyl)-1-oxopropan-2-yl)amino)-1-oxopropan-2-yl)-4-hydroxycyclohexanecarboxamide]
IC50 [1, 3]: 34.6 nM
IC50 [2]: 1480 nM
solubility (Solubility pH 7): 2660 µg/mL (≈ 4.55 mM)

COc1ccc(C[C@H](NC(=O)[C@H](C)NC(=O)CN2CCOCC2)C(=O)N[C@@H](CC2CC=CC2)C(=O)[C@@]2(C)CO2)cc1 [Compound C-1066, (S)-N-((S)-3-(cyclopent-3-en-1-yl)-1-((R)-2-methyloxiran-2-yl)-1-oxopropan-2-yl)-3-(4-methoxyphenyl)-2-((S)-2-(2-morpholinoacetamido)propanamido)propanamide]
IC50 [1, 3]: 47.1 nM
IC50 [2]: 335 nM
solubility (Solubility pH 7): 3200 µg/mL (≈ 5.6 mM)

C[C@H](NC(=O)CN1CCOCC1)C(=O)N[C@@H](Cc1ccc2[nH]ncc2c1)C(=O)N[C@@H](CC1CCCC1)C(=O)[C@@]1(C)CO1 [Compound C-1070, (S)-N-((S)-3-cyclopentyl-1-((R)-2-methyloxiran-2-yl)-1-oxopropan-2-yl)-3-(1H-indazol-5-yl)-2-((S)-2-(2-morpholinoacetamido)propanamido)propanamide]
IC50 [1, 3]: 209 nM
IC50 [2]: 1810 nM
solubility (Solubility pH 7): 2140 µg/mL (≈ 3.67 mM)

COc1ccc(C[C@H](NC(=O)[C@H](C)NC(=O)CN2CCOCC2)C(=O)N[C@@H](CC2CCCC2)C(=O)[C@H]2CO2)cc1OC [Compound C-1071, (S)-N-((S)-3-cyclopentyl-1-((R)-oxiran-2-yl)-1-oxopropan-2-yl)-3-(3,4-dimethoxyphenyl)-2-((S)-2-(2-morpholinoacetamido)propanamido)propanamide]
IC50 [1, 3]: 106 nM
IC50 [2]: 3890 nM
solubility (Solubility pH 7): 4300 µg/mL (≈ 7.3 mM)

COc1ccc([C@@H](O)[C@H](NC(=O)[C@@H](C)NC(=O)[C@H]2CC[C@H](O)CC2)C(=O)N[C@@H](CC2=CCCC2)C(=O)[C@@]2(C)CO2)cc1 [Compound C-1080, (1r,4R)-N-((R)-1-(((2S,3R)-1-(((S)-3-(cyclopent-1-en-1-yl)-1-((R)-2-methyloxiran-2-yl)-1-oxopropan-2-yl)amino)-3-hydroxy-3-(4-methoxyphenyl)-1-oxopropan-2-yl)amino)-1-oxopropan-2-yl)-4-hydroxycyclohexanecarboxamide]
IC50 [1, 3]: 25.2 nM
IC50 [2]: 1180 nM

COc1ccc(C[C@H](NC(=O)[C@H](C)NC(=O)CN2CCOCC2)C(=O)N[C@@H](C[C@H]2[C@@H]3CCC[C@@H]32)C(=O)[C@@]2(C)CO2)cc1 [Compound C-1142, (S)-N-((S)-3-((1R,5S,6r)-bicyclo[3.1.0]hexan-6-yl)-1-((R)-2-methyloxiran-2-yl)-1-oxopropan-2-yl)-3-(4-methoxyphenyl)-2-((S)-2-(2-morpholinoacetamido)propanamido)propanamide]
solubility (Solubility pH 7): 2340 µg/mL (≈ 4 mM)

COc1ccc(C[C@H](NC(=O)[C@@H](COCc2ccccc2)NC(=O)CN2CCOCC2)C(=O)N[C@@H](Cc2ccccc2)C(=O)[C@@]2(C)CO2)cc1 [Compound C-1156]
IC50 ([1]; read-out: ProCISE LMP7 MOLT4 lysate Hu 1 h CONT: IC50, 1 h continuous treatment, 25° C.): 50.8 nM
IC50 ([2]; read-out: ProCISE beta5 MOLT4 lysate Hu 1 h CONT: IC50): 175 nM

COc1ccc(C[C@H](NC(=O)[C@H](C)NC(=O)CN2CCOCC2)C(=O)N[C@@H](Cc2ccc(C#N)cc2)C(=O)[C@@]2(C)CO2)cc1 [Compound C-1163]
solubility (Solubility pH 7): 2460 µg/mL (≈ 4.06 mM)

COc1ccc(C[C@H](NC(=O)[C@H](C)NC(=O)[C@@H]2CCCN2C)C(=O)N[C@@H](Cc2ccccc2)C(=O)[C@@]2(C)CO2)cc1 [Compound C-1165]
solubility (Solubility pH 7): 2150 µg/mL (≈ 3.8 mM)

COc1ccc(C[C@H](NC(=O)[C@H](C)NC(=O)C2COC2)C(=O)N[C@@H](Cc2ccccc2)C(=O)[C@@]2(C)CO2)cc1 [Compound C-1168]
solubility (Solubility pH 7): 213 µg/mL (≈ 0.396 mM)

COc1ccc(C[C@H](NC(=O)[C@H](C)NC(=O)C2CN(C)C2)C(=O)N[C@@H](Cc2ccccc2)C(=O)[C@@]2(C)CO2)cc1 [Compound C-1172, N-((S)-1-(((S)-3-(4-methoxyphenyl)-1-(((S)-1-((R)-2-methyloxiran-2-yl)-1-oxo-3-phenylpropan-2-yl)amino)-1-oxopropan-2-yl)amino)-1-oxopropan-2-yl)-1-methylazetidine-3-carboxamide]
solubility (Solubility pH 7): 1900 µg/mL (≈ 3.46 mM)

COc1ccc(C[C@H](NC(=O)C(C)NC(=O)CN2CCOCC2)C(=O)N[C@H](C(=O)[C@@]2(C)CO2)c2ccccc2)cc1 (some centres unmarked) [Compound C-1176]
solubility (Solubility pH 7): 1890 µg/mL (≈ 3.34 mM)

C[C@H](NC(=O)CN1CCOCC1)C(=O)N[C@@H](CC1CC1)C(=O)N[C@@H](Cc1ccccc1)C(=O)[C@@]1(C)CO1 [Compound C-1224, (S)-3-cyclopropyl-N-((S)-1-((R)-2-methyloxiran-2-yl)-1-oxo-3-phenylpropan-2-yl)-2-((S)-2-(2-morpholinoacetamido)propanamido)propanamide]
solubility (Solubility pH 7): 257 µg/mL (≈ 0.5 mM)

COc1ccc(C[C@H](NC(=O)[C@H](C)NC(=O)CN2CCOCC2)C(=O)N[C@@H](CC(F)(F)F)C(=O)[C@@]2(C)CO2)cc1 [Compound C-1226]
solubility (Solubility pH 7): 3820 µg/mL (≈ 6.67 mM)

CC#CC[C@H](NC(=O)[C@H](Cc1ccc(OC)cc1)NC(=O)[C@H](C)NC(=O)CN1CCOCC1)C(=O)[C@@]1(C)CO1 [Compound C-1228]
solubility (Solubility pH 7): 682 µg/mL (≈ 1.26 mM)
